Results taken from ChEMBL document CHEMBL4813969, “Design, synthesis and evaluation of 3-amide-5-aryl benzoic acid derivatives as novel P2Y14R antagonists with potential high efficiency against acute gouty arthritis” (Eur J Med Chem, 2021).
Values after ≈ are worked out from the molar mass of the structure shown. Values belong to the compound of their own block, whether it stands above or below them. Active and inactive are the calls of the source. No cut-off for these calls is given here.

Key:
[1] = Aqueous solubility of compound in PBS buffer at pH 7.4 incubated for overnight by UV-spectrometry; assay type: physicochemical
P2Y purinoceptor 14 = molecular target: T1, P2Y purinoceptor 14 (Homo sapiens, UniProt Q15391); test: Antagonist activity at P2Y14 (unknown origin) expressed in HEK293 cells assessed as reduction in cAMP production incubated for 30 mins by ADP-glo assay; assay type: functional, cell-based
T1 sequence (Q15391 whole entry): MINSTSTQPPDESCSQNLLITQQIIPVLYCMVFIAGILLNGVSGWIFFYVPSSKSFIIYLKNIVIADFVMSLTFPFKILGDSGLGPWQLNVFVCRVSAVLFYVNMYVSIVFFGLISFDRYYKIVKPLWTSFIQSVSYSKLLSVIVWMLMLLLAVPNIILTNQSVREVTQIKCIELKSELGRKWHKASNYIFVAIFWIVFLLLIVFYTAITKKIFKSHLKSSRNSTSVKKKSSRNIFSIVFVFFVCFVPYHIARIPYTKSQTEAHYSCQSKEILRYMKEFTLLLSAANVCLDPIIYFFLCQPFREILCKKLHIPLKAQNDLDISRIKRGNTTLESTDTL

[2] = molecular target: T2, P2Y purinoceptor 14 (Homo sapiens) (UniProt Q15391); settings: time 30.0 min
T2 sequence (whole entry): T1 sequence (Q15391 whole entry)

Mus musculus [3] = test: Inhibition of MSU-induced IL-1beta level in foot tissue of MSU-induced acute gout arthritis ICR mouse model at 10 mg/kg, sc measured upto 24 hrs by Western blot analysis; assay type: functional, organism-based; settings: time hrs <=24
Mus musculus [4] = test: Downregulation of MSU-induced ASC expression in foot tissue of MSU-induced acute gout arthritis ICR mouse model at 10 mg/kg, sc measured upto 24 hrs by Western blot analysis; assay type: functional, organism-based; settings: time hrs <=24
Mus musculus [5] = test: Antiarthritic activity against MSU-induced acute gout arthritis ICR mouse model assessed as reduction in paw swelling at 10 mg/kg, sc measured upto 24 hrs; assay type: functional, organism-based; settings: time hrs <=24
[6] = In vivo inhibition of MSU-induced pyroptosis in ICR mouse model of acute gout arthritis assessed as late apoptotic macrophage cells in foot tissue at 10 mg/kg, sc incubated for 24 hrs by caspase-1 and PI staining based flow cytometric analysis (reference value: 21.6 %); assay type: functional
[7] = In vivo inhibition of MSU-induced pyroptosis in ICR mouse model of acute gout arthritis assessed as necrotic macrophage cells in foot tissue at 10 mg/kg, sc incubated for 24 hrs by caspase-1 and PI staining based flow cytometric analysis (reference value: 31.4 %); assay type: functional
[8] = In vivo inhibition of MSU-induced pyroptosis in ICR mouse model of acute gout arthritis assessed as viable macrophage cells in foot tissue at 10 mg/kg, sc incubated for 24 hrs by caspase-1 and PI staining based flow cytometric analysis (reference value: 34.3 %); assay type: functional
Mus musculus [9] = test: Inhibition of MSU-induced IL-8 level in foot tissue of MSU-induced acute gout arthritis ICR mouse model at 10 mg/kg, sc measured upto 24 hrs by Western blot analysis; assay type: functional, organism-based; settings: time hrs <=24
Mus musculus [10] = test: Antiarthritic activity against MSU-induced acute gout arthritis ICR mouse model assessed as reduction in infiltration of inflammatory cells at 10 mg/kg, sc measured upto 24 hrs; assay type: functional, organism-based; settings: time hrs <=24
Mus musculus [11] = test: Inhibition of MSU-induced GSDMD-NT level in foot tissue of MSU-induced acute gout arthritis ICR mouse model at 10 mg/kg, sc measured upto 24 hrs by Western blot analysis; assay type: functional, organism-based; settings: time hrs <=24
[12] = In vivo inhibition of MSU-induced pyroptosis in ICR mouse model of acute gout arthritis assessed as early apoptotic macrophage cells in foot tissue at 10 mg/kg, sc incubated for 24 hrs by caspase-1 and PI staining based flow cytometric analysis (reference value: 12.7 %); assay type: functional
Mus musculus [13] = test: Downregulation of MSU-induced caspase-1 P20 expression in foot tissue of MSU-induced acute gout arthritis ICR mouse model at 10 mg/kg, sc measured upto 24 hrs by Western blot analysis; assay type: functional, organism-based; settings: time hrs <=24
Mus musculus [14] = test: Downregulation of MSU-induced NLRP3 expression in foot tissue of MSU-induced acute gout arthritis ICR mouse model at 10 mg/kg, sc measured upto 24 hrs by Western blot analysis; assay type: functional, organism-based; settings: time hrs <=24
[15] = Oral bioavailability in mouse at 10 mg/kg; assay type: ADME, organism-based; settings: in vivo
[16] = Chemical stability of compound in DMSO; assay type: physicochemical
[17] = Volume of distribution at steady state in mouse at 10 mg/kg, po; assay type: ADME, organism-based; settings: in vivo
[18] = Metabolic stability in human liver microsomes assessed as half life at […] incubated for 45 mins by LC-MS/MS analysis; assay type: ADME, Microsome
[19] = Cmax in mouse at 10 mg/kg, po; assay type: ADME, organism-based; design: route oral, dose 10 mg/kg; settings: in vivo
[20] = Cmax in mouse at 5 mg/kg, iv; assay type: ADME, organism-based; design: route intravenous, dose 5 mg/kg; settings: in vivo
[21] = Clearance in mouse at 10 mg/kg, po; assay type: ADME, organism-based; settings: in vivo
[22] = Tmax in mouse at 5 mg/kg, iv; assay type: ADME, organism-based; settings: in vivo
[23] = Half life in mouse at 10 mg/kg, po; assay type: ADME, organism-based; settings: in vivo
[24] = AUC in mouse at 10 mg/kg, po; assay type: ADME, organism-based; design: dose 10 mg/kg; settings: in vivo
[25] = Half life in mouse at 5 mg/kg, iv; assay type: ADME, organism-based; settings: in vivo
[26] = Volume of distribution at steady state in mouse at 5 mg/kg, iv; assay type: ADME, organism-based; settings: in vivo, read-out: Vdss
[27] = AUC in mouse at 5 mg/kg, iv; assay type: ADME, organism-based; design: dose 5 mg/kg; settings: in vivo
[28] = HEK293, filed as antagonist, dose 100.0 nM

SMILES: O=C(O)c1cc(-c2ccc(C3CCNCC3)cc2)c2ccc(-c3ccc(C(F)(F)F)cc3)cc2c1 [PPTN]
inhibition (Mus musculus [3]): Active | Activity (Mus musculus [4]): Active | Activity (Mus musculus [5]): Active | inhibition in vivo at 10 mg/kg [6]: 6.41% | inhibition in vivo at 10 mg/kg [7]: 11.1% | solubility [1]: < 5 µg/mL | inhibition in vivo at 10 mg/kg [8]: 65.1% | inhibition (Mus musculus [9]): Active | Activity (Mus musculus [10]): Active | inhibition (Mus musculus [11]): Active | inhibition in vivo at 10 mg/kg [12]: 17.3% | Activity (Mus musculus [13]): Active | Activity (Mus musculus [14]): Active | bioavailability [15]: 7%

SMILES: Cc1ccc(C(=O)Nc2cc(C(=O)O)cc(-c3c(C)noc3C)c2)cc1
Stabilty [16]: Unstable | IC50 (P2Y purinoceptor 14): 2.95 nM | inhibition [2, 28]: 82.3%

SMILES: Cc1ccc(C(=O)Nc2cc(C(=O)O)cc(-c3ccco3)c2)cc1
inhibition [2, 28]: 61.1%

SMILES: Cc1ccc(C(=O)Nc2cc(C(=O)O)cc(-c3cc[nH]n3)c2)cc1
Stabilty [16]: Unstable | IC50 (P2Y purinoceptor 14): 2.63 nM | inhibition [2, 28]: 86.8%

SMILES: Cc1ccc(C(=O)Nc2cc(C(=O)O)cc(-c3cncnc3)c2)cc1
inhibition [2, 28]: 65.7%

SMILES: Cc1ccc(C(=O)Nc2cc(C(=O)O)cc(-c3cnc(N)nc3)c2)cc1
inhibition [2, 28]: 68.6%

SMILES: COc1ncc(-c2cc(NC(=O)c3ccc(C)cc3)cc(C(=O)O)c2)cn1
inhibition [2, 28]: 72.5%

SMILES: CC(=O)c1ccc(-c2cc(NC(=O)c3ccc(C)cc3)cc(C(=O)O)c2)s1
inhibition [2, 28]: 43.7%

SMILES: Cc1ccc(C(=O)Nc2cc(C(=O)O)cc(-c3cccs3)c2)cc1
inhibition [2, 28]: 68.8%

The next lines start with results.

solubility [1]: 46.3 µg/mL (≈ 140 µM) | IC50 (P2Y purinoceptor 14): 4.85 nM | inhibition [2, 28]: 87%
SMILES: Cc1ccc(C(=O)Nc2cc(C(=O)O)cc(-c3ccccc3)c2)cc1

bioavailability [15]: 6% | inhibition [2, 28]: 85.3%
SMILES: Cc1ccc(C(=O)Nc2cc(C(=O)O)cc(-c3ccc(C4CCNCC4)cc3)c2)cc1

inhibition [2, 28]: 79.1%
SMILES: Cc1ccc(C(=O)Nc2cc(C(=O)O)cc(-c3cccnc3)c2)cc1

inhibition [2, 28]: 72.1%
SMILES: Cc1ccc(C(=O)Nc2cc(C(=O)O)cc(-c3ccncc3)c2)cc1

inhibition [2, 28]: 60.2%
SMILES: Cc1ccc(C(=O)Nc2cc(C(=O)O)cc(-c3ccc(C)s3)c2)cc1

inhibition [2, 28]: 79.1%
SMILES: COc1ccc(-c2cc(NC(=O)c3ccc(C)cc3)cc(C(=O)O)c2)cc1

Vdss [17]: 0.21267 L/kg | half-life [18]: > 1 h | solubility [1]: 77.6 µg/mL (≈ 241 µM) | Cmax [19]: 1800 ng/mL | Cmax [20]: 19300 ng/mL | CL/F [21]: 6.03 mL/min/kg | Stabilty [16]: Stable | Tmax [22]: 5 min | half-life [23]: 2.56 h | IC50 (P2Y purinoceptor 14): 2.18 nM | AUC [24]: 7280 ng·h/mL | half-life [25]: 2.32 h | Vd [26]: 0.782 L/kg | bioavailability [15]: 48.3% | AUC [27]: 843849 ng·min/mL | inhibition [2, 28]: 93.4%
SMILES: Cc1ccc(C(=O)Nc2cc(C(=O)O)cc(-c3ccoc3)c2)cc1
inhibition (Mus musculus [3]): Active | Activity (Mus musculus [4]): Active | Activity (Mus musculus [5]): Active | inhibition in vivo at 10 mg/kg [6]: 10.9% | inhibition in vivo at 10 mg/kg [7]: 33% | inhibition in vivo at 10 mg/kg [8]: 43.2% | inhibition (Mus musculus [9]): Active | Activity (Mus musculus [10]): Active | inhibition (Mus musculus [11]): Active | inhibition in vivo at 10 mg/kg [12]: 13% | Activity (Mus musculus [13]): Active | Activity (Mus musculus [14]): Active

IC50 (P2Y purinoceptor 14): 9.74 nM | inhibition [2, 28]: 83%
SMILES: Cc1ccc(C(=O)Nc2cc(C(=O)O)cc(-c3ccsc3)c2)cc1

inhibition ([2]; HEK293, dose 100.0 nM): 16.1%
SMILES: Cc1ccc(C(=O)Nc2cc(C(=O)O)cc(-c3ccc(C)o3)c2)cc1

inhibition [2, 28]: 46%
SMILES: Cc1ccc(C(=O)Nc2cc(C(=O)O)cc(-c3ccc[nH]3)c2)cc1
